Results: US11746100B2 (GLOBAL BLOOD THERAPEUTICS, INC., priority 2020, dated 2023)

Target: T1, human ferroportin (Homo sapiens, UniProt Q9NP59)
T1 construct: luciferase reporter (read with the Nano-Glo Luciferase Assay System); expressed in transfected cells; host or cells: CHO cells, stably transfected, expression induced with doxycycline
T1 sequence (Q9NP59 1-571): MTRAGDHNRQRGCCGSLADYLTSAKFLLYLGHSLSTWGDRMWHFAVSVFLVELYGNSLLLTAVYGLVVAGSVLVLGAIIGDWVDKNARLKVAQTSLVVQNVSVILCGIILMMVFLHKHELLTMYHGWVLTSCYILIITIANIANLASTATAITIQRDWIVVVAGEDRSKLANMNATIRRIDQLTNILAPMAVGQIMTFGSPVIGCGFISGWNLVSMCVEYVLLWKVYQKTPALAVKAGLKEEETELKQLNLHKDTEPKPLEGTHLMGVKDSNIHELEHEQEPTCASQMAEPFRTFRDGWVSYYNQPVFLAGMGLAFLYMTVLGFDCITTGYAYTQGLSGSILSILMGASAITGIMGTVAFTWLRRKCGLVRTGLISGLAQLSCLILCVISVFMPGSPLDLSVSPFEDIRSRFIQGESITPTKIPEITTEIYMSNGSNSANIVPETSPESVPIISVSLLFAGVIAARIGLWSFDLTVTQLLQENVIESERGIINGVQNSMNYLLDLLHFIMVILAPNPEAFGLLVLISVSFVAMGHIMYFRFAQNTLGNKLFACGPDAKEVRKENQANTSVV
Test: Biological in-vitro ferroportin internalization assay (luciferase reporter)
Assay type: cell-based
Conditions: average pEC50; stably-transfected CHO cell line expressing human ferroportin tagged to a luciferase reporter; 6 h incubation with test compound
Summary of the method: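 Stably transfected CHO cells expressing luciferase-tagged human ferroportin, plated 24 h with ferric ammonium citrate and induced with doxycycline for 24 h. Compounds incubated 6 h, then luciferase activity measured by Nano-Glo; average pEC50 reported.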

SMILES	pEC50
Cc1cc(OCC(C)(C)O)cc(-c2nc3c(c(N(C)CC(=O)NC(C)(C)C)n2)CCC3)n1 [Compound 440, N-tert-butyl-2-({2-[4-(2-hydroxy-2-methylpropoxy)-6-methylpyridin-2-yl]-5H,6H,7H-cyclopenta[d]pyrimidin-4-yl}(methyl)amino)acetamide]	8
COc1cnc(NC(=O)CN(C)c2nc(-c3cc(OCCO)ccn3)nc3c2CCC3)nc1 [Compound 295, 2-({2-[4-(2-hydroxyethoxy)pyridin-2-yl]-5H,6H,7H-cyclopenta[d]pyrimidin-4-yl}(methyl)amino)-N-(5-methoxypyrimidin-2-yl)acetamide]	7
COc1ccnc(-c2nc3c(c(N(C)CC(=O)N[C@@H]4CCC[C@H]4O)n2)CCC3)c1 (relative stereo) [Compound 172, N-[(1R,2R)-2-hydroxycyclopentyl]-2-{[2-(4-methoxypyridin-2-yl)-5H,6H,7H-cyclopenta[d]pyrimidin-4-yl](methyl)amino}acetamide]	7.5
CN(CC(=O)NC(C)(C)C)c1nc(-c2cn(CCO)cn2)nc2c1CCC2 [Compound 195, N-tert-butyl-2-({2-[1-(2-hydroxyethyl)-1H-imidazol-4-yl]-5H,6H,7H-cyclopenta[d]pyrimidin-4-yl}(methyl)amino)acetamide]	6.9
CC(C(=O)NC(C)(C)C)N(c1ccccc1)c1nc(-c2ccccn2)nc2c1CCC2 (stereo not drawn) [Compound 20, N-tert-butyl-2-{phenyl[2-(pyridin-2-yl)-5H,6H,7H-cyclopenta[d]pyrimidin-4-yl]amino}propanamide]	6.7
CN(CC(=O)NC(C)(C)C)c1nc(-c2cc(OCCOc3cccnn3)ccn2)nc2c1CCC2 [Compound 468, N-tert-butyl-2-[methyl(2-{4-[2-(pyridazin-3-yloxy)ethoxy]pyridin-2-yl}-5H,6H,7H-cyclopenta[d]pyrimidin-4-yl)amino]acetamide]	8.5
CN(CC(=O)NC1(C)CCOC1)c1nc(-c2cn(C)cn2)nc2c1CCC2 (stereo not drawn) [Compound 147, 2-{methyl[2-(1-methyl-1H-imidazol-4-yl)-5H,6H,7H-cyclopenta[d]pyrimidin-4-yl]amino}-N-(3-methyloxolan-3-yl)acetamide]	6.7
CC[C@@H](O)COc1ccnc(-c2nc3c(c(N(C)CC(=O)NC(C)(C)C)n2)CCC3)c1 [Compound 393, N-tert-butyl-2-[(2-{4-[(2R)-2-hydroxybutoxy]pyridin-2-yl}-5H,6H,7H-cyclopenta[d]pyrimidin-4-yl)(methyl)amino]acetamide]	8.1
CN(CC(=O)NC(C)(C)C)c1nc(-c2cc(OCC(C)(C)O)ccn2)nc2c1CCC2 [Compound 174, N-tert-butyl-2-({2-[4-(2-hydroxy-2-methylpropoxy)pyridin-2-yl]-5H,6H,7H-cyclopenta[d]pyrimidin-4-yl}(methyl)amino)acetamide]	8.2
CN1CCCN(c2nc(-c3ccccn3)nc3c2CCC3)CC1 [Compound 85, 1-methyl-4-[2-(pyridin-2-yl)-5H,6H,7H-cyclopenta[d]pyrimidin-4-yl]-1,4-diazepane]	5.5
CN(Cc1nncn1-c1cccc(F)c1)c1nc(-c2cc(OCCO)ccn2)nc2c1CCC2 [Compound 319]	6.4
CN(CC(=O)Nc1cnn(C)c1)c1nc(-c2cc(OC3COC3)ccn2)nc2c1CCC2 [Compound 254, 2-[methyl({2-[4-(oxetan-3-yloxy)pyridin-2-yl]-5H,6H,7H-cyclopenta[d]pyrimidin-4-yl})amino]-N-(1-methyl-1H-pyrazol-4-yl)acetamide]	7
O=C(CNc1nc(-c2ccccn2)nc2c1CCC2)Nc1ccc2cccnc2c1 [Compound 7, 2-{[2-(pyridin-2-yl)-5H,6H,7H-cyclopenta[d]pyrimidin-4-yl]amino}-N-(quinolin-7-yl)acetamide]	6.6
CCN1CC[C@@H](Oc2ccnc(-c3nc4c(c(N(C)CC(=O)NC(C)(C)C)n3)CCC4)c2)C1 [Compound 496, N-tert-butyl-2-{[2-(4-{[(3R)-1-ethylpyrrolidin-3-yl]oxy}pyridin-2-yl)-5H,6H,7H-cyclopenta[d]pyrimidin-4-yl](methyl)amino}acetamide]	8.0
COc1ccc(NC(=O)CN(C)c2nc(-c3cc4cnccc4cn3)nc3c2CCC3)cn1 [Compound 258, N-(6-methoxypyridin-3-yl)-2-{methyl[2-(2,6-naphthyridin-3-yl)-5H,6H,7H-cyclopenta[d]pyrimidin-4-yl]amino}acetamide]	6.3
COc1ccc(NC(=O)CN(C)c2nc(-c3cc4cccnc4cn3)nc3c2CCC3)cn1 [Compound 244, N-(6-methoxypyridin-3-yl)-2-{methyl[2-(1,7-naphthyridin-6-yl)-5H,6H,7H-cyclopenta[d]pyrimidin-4-yl]amino}acetamide]	6.4
c1ccc(-c2nc3c(c(N4CCc5ccccc5CC4)n2)CCC3)nc1 [Compound 83, 3-[2-(pyridin-2-yl)-5H,6H,7H-cyclopenta[d]pyrimidin-4-yl]-2,3,4,5-tetrahydro-1H-3-benzazepine]	6.9
COc1ccnc(-c2nc3c(c(N(C)CC(=O)N4CC[C@H](O)C4)n2)CCC3)c1 [Compound 472, 1-[(3S)-3-hydroxypyrrolidin-1-yl]-2-{[2-(4-methoxypyridin-2-yl)-5H,6H,7H-cyclopenta[d]pyrimidin-4-yl](methyl)amino}ethan-1-one]	7.4
CN(C)CCOc1ccnc(-c2nc3c(c(N(C)CC(=O)NC(C)(C)C)n2)CC(C)(C)C3)c1 [Compound 454, N-tert-butyl-2-[(2-{4-[2-(dimethylamino)ethoxy]pyridin-2-yl}-6,6-dimethyl-5H,6H,7H-cyclopenta[d]pyrimidin-4-yl)(methyl)amino]acetamide]	7.9
CN(CC(=O)Nc1ccc(F)nc1)c1nc(-c2ccccn2)nc2c1CCC2 [Compound 127, N-(6-fluoropyridin-3-yl)-2-{methyl[2-(pyridin-2-yl)-5H,6H,7H-cyclopenta[d]pyrimidin-4-yl]amino}acetamide]	7.1
CN(CC(=O)N1CCCCC1)c1nc(-c2cc(OCC(C)(C)O)ccn2)nc2c1CCC2 [Compound 382, 2-({2-[4-(2-hydroxy-2-methylpropoxy)pyridin-2-yl]-5H,6H,7H-cyclopenta[d]pyrimidin-4-yl}(methyl)amino)-1-(piperidin-1-yl)ethan-1-oneide]	7.8
CN(CC(=O)NC(C)(C)C)c1nc(-c2cc(C#N)ccn2)nc2c1CCC2 [Compound 158, N-tert-butyl-2-{[2-(4-cyanopyridin-2-yl)-5H,6H,7H-cyclopenta[d]pyrimidin-4-yl](methyl)amino}acetamide]	6.2
CN(CC(=O)NC(C)(C)C)c1nc(-c2cnc(O)cn2)nc2c1CCC2 [Compound 28, N-tert-butyl-2-{[2-(5-hydroxypyrazin-2-yl)-5H,6H,7H-cyclopenta[d]pyrimidin-4-yl](methyl)amino}acetamide]	5.9
COc1ccnc(-c2nc3c(c(N(C)Cc4nc(Cc5ccccc5)co4)n2)CCC3)c1 [Compound 379, N-[(4-benzyl-1,3-oxazol-2-yl)methyl]-2-(4-methoxypyridin-2-yl)-N-methyl-5H,6H,7H-cyclopenta[d]pyrimidin-4-aminemide]	7.2
COc1ccnc(-c2nc3c(c(N(C)CC(=O)N[C@H]4CCC[C@@H]4O)n2)CCC3)c1 (stereo in doubt) [Compound 173, N-[(1S,2S)-2-hydroxycyclopentyl]-2-{[2-(4-methoxypyridin-2-yl)-5H,6H,7H-cyclopenta[d]pyrimidin-4-yl](methyl)amino}acetamide]	6.8
CCNC(=O)CN(C)c1nc(-c2cc(OCC3(O)CC3)ccn2)nc2c1CCC2 [Compound 441, N-ethyl-2-[(2-{4-[(1-hydroxycyclopropyl)methoxy]pyridin-2-yl}-5H,6H,7H-cyclopenta[d]pyrimidin-4-yl)(methyl)amino]acetamide]	7.5
COc1ccnc(-c2nc3c(c(N(C)CC(=O)N4CCOCC4)n2)CCC3)c1 [Compound 477, 2-{[2-(4-methoxypyridin-2-yl)-5H,6H,7H-cyclopenta[d]pyrimidin-4-yl](methyl)amino}-1-(morpholin-4-yl)ethan-1-one]	6.9
CN(CC(=O)Nc1ccc(F)cc1)c1nc(-c2cc(OCCO)ccn2)nc2c1CCC2 [Compound 198, N-(4-fluorophenyl)-2-({2-[4-(2-hydroxyethoxy)pyridin-2-yl]-5H,6H,7H-cyclopenta[d]pyrimidin-4-yl}(methyl)amino)acetamide]	8.1
CN(CC(=O)Nc1ccn(C)n1)c1nc(-c2cc3cn[nH]c3cn2)nc2c1CCC2 [Compound 232, 2-[methyl(2-{1H-pyrazolo[3,4-c]pyridin-5-yl}-5H,6H,7H-cyclopenta[d]pyrimidin-4-yl)amino]-N-(1-methyl-1H-pyrazol-3-yl)acetamide]	7
CNCCOc1ccnc(-c2nc3c(c(NCC(=O)NC(C)(C)C)n2)CCC3)c1 [Compound 485, N-tert-butyl-2-[(2-{4-[2-(methylamino)ethoxy]pyridin-2-yl}-5H,6H,7H-cyclopenta[d]pyrimidin-4-yl)amino]acetamide]	7.1
